Activity data for 16 molecules are collected here from ChEMBL document CHEMBL1154398, “Synthesis and activity in enhancing long-term potentiation (LTP) of clausenamide stereoisomers” (2009).

Structures are written as SMILES. A value given as a limit tells only on which side of the number the result lay.

One experiment can be described thus: Nootropic activity in hippocampus assessed as increase in amplitude of population spikes after 15 mins by long-term potentiation enhancement assay relative to control. Format: functional. Further details: concentration or dose not given beside the values.
With `CN1C(=O)[C@H](O)[C@@H](c2ccccc2)[C@H]1[C@@H](O)c1ccccc1`, the Activity stood at 36%.
The same measure, in the same setting: as for `CN1C(=O)[C@@H](O)[C@H](c2ccccc2)[C@H]1[C@H](O)c1ccccc1`, the figure is -18.2%; as for `CN1C(=O)[C@H](O)[C@H](c2ccccc2)[C@@H]1[C@@H](O)c1ccccc1`, 26.2%.
Still for that read-out and setting: the same measure for `CN1C(=O)[C@@H](O)[C@@H](c2ccccc2)[C@@H]1[C@@H](O)c1ccccc1`: -5.9%; for `CN1C(=O)[C@H](O)[C@H](c2ccccc2)[C@H]1[C@@H](O)c1ccccc1`: -3%; for `CN1C(=O)[C@H](O)[C@H](c2ccccc2)[C@@H]1[C@H](O)c1ccccc1`: 7.2%.
In the case of `CN1C(=O)[C@@H](O)[C@@H](c2ccccc2)[C@H]1[C@@H](O)c1ccccc1`, the Activity was 1.7%.
For `CN1C(=O)[C@H](O)[C@H](c2ccccc2)[C@H]1[C@H](O)c1ccccc1`, the Activity was determined as 35%.
As to `CN1C(=O)[C@@H](O)[C@H](c2ccccc2)[C@H]1[C@@H](O)c1ccccc1`, the Activity is listed as -9.4%.
For `CN1C(=O)[C@@H](O)[C@H](c2ccccc2)[C@@H]1[C@H](O)c1ccccc1`, the Activity was -2.2%.
Take `CN1C(=O)[C@@H](O)[C@@H](c2ccccc2)[C@@H]1[C@H](O)c1ccccc1`: the Activity is recorded as -11.5%.
Turning to `CN1C(=O)[C@@H](O)[C@H](c2ccccc2)[C@@H]1[C@@H](O)c1ccccc1`, the Activity worked out at 31.8%.
For `CN1C(=O)[C@H](O)[C@@H](c2ccccc2)[C@@H]1[C@H](O)c1ccccc1`, the Activity was 4.7%.
As for `CN1C(=O)[C@@H](O)[C@@H](c2ccccc2)[C@H]1[C@H](O)c1ccccc1`, the Activity was -12.7%.
As to `CN1C(=O)[C@H](O)[C@@H](c2ccccc2)[C@H]1[C@H](O)c1ccccc1` [(+)CLAUSENAMIDE], the Activity is -9.4%.
Regarding `CN1C(=O)[C@H](O)[C@@H](c2ccccc2)[C@@H]1[C@@H](O)c1ccccc1` [(+)NEOCLAUSENAMIDE], the Activity is -0.7%.

A further experiment in a line: Nootropic activity in hippocampus assessed as increase in amplitude of population spikes after 30 mins by long-term potentiation enhancement assay relative to control. In kind it is functional. On the set-up: concentration or dose not given beside the values.
With `CN1C(=O)[C@H](O)[C@@H](c2ccccc2)[C@H]1[C@@H](O)c1ccccc1`, the Activity came to 47.5%.
With `CN1C(=O)[C@@H](O)[C@H](c2ccccc2)[C@H]1[C@H](O)c1ccccc1`, the Activity was -34.5%.
Take `CN1C(=O)[C@H](O)[C@H](c2ccccc2)[C@@H]1[C@@H](O)c1ccccc1`: the Activity stood at 41.2%.
Take `CN1C(=O)[C@@H](O)[C@@H](c2ccccc2)[C@@H]1[C@@H](O)c1ccccc1`: the Activity is on record as -1.8%.
Still for that read-out and setting: the same measure for `CN1C(=O)[C@H](O)[C@H](c2ccccc2)[C@H]1[C@@H](O)c1ccccc1`: 10.1%; for `CN1C(=O)[C@H](O)[C@H](c2ccccc2)[C@@H]1[C@H](O)c1ccccc1`: 0.3%; for `CN1C(=O)[C@@H](O)[C@@H](c2ccccc2)[C@H]1[C@@H](O)c1ccccc1`: 9.7%.
As to `CN1C(=O)[C@H](O)[C@H](c2ccccc2)[C@H]1[C@H](O)c1ccccc1`, the Activity worked out at 50.9%.
On to `CN1C(=O)[C@@H](O)[C@H](c2ccccc2)[C@H]1[C@@H](O)c1ccccc1`, for which the Activity is on record as -8.1%.
Turning to `CN1C(=O)[C@@H](O)[C@H](c2ccccc2)[C@@H]1[C@H](O)c1ccccc1`, the Activity is listed as -8.8%.
In the case of `CN1C(=O)[C@@H](O)[C@@H](c2ccccc2)[C@@H]1[C@H](O)c1ccccc1`, the Activity is given as -11.9%.
For the molecule `CN1C(=O)[C@@H](O)[C@H](c2ccccc2)[C@@H]1[C@@H](O)c1ccccc1`, the Activity worked out at 38.5%.
`CN1C(=O)[C@H](O)[C@@H](c2ccccc2)[C@@H]1[C@H](O)c1ccccc1`: the Activity is -5.3%.
For the molecule `CN1C(=O)[C@@H](O)[C@@H](c2ccccc2)[C@H]1[C@H](O)c1ccccc1`, the Activity was determined as 2.9%.
Still for that read-out and setting: the same measure for `CN1C(=O)[C@H](O)[C@@H](c2ccccc2)[C@H]1[C@H](O)c1ccccc1` [(+)CLAUSENAMIDE]: 10.1%.
For `CN1C(=O)[C@H](O)[C@@H](c2ccccc2)[C@@H]1[C@@H](O)c1ccccc1` [(+)NEOCLAUSENAMIDE], the Activity was -29.1%.

The next experiment in a line: Nootropic activity in hippocampus assessed as increase in amplitude of population spikes after 60 mins by long-term potentiation enhancement assay relative to control. In kind it is functional. Further details: concentration or dose not given beside the values.
In the case of `CN1C(=O)[C@H](O)[C@@H](c2ccccc2)[C@H]1[C@@H](O)c1ccccc1`, the Activity is listed as 107.8%.
Take `CN1C(=O)[C@H](O)[C@H](c2ccccc2)[C@@H]1[C@@H](O)c1ccccc1`: the Activity was 105.4%.
On to `CN1C(=O)[C@@H](O)[C@@H](c2ccccc2)[C@@H]1[C@@H](O)c1ccccc1`, for which the Activity is on record as -5.1%.
Consider `CN1C(=O)[C@H](O)[C@H](c2ccccc2)[C@H]1[C@@H](O)c1ccccc1`, for which the Activity was determined as 21.7%.
On the same count and under the same terms, as for `CN1C(=O)[C@H](O)[C@H](c2ccccc2)[C@@H]1[C@H](O)c1ccccc1`, the figure is 5.4%.
Consider `CN1C(=O)[C@@H](O)[C@@H](c2ccccc2)[C@H]1[C@@H](O)c1ccccc1`, for which the Activity is 9.6%.
Still for that read-out and setting: as for `CN1C(=O)[C@H](O)[C@H](c2ccccc2)[C@H]1[C@H](O)c1ccccc1`, the figure is 92.3%.
`CN1C(=O)[C@@H](O)[C@H](c2ccccc2)[C@H]1[C@@H](O)c1ccccc1`: the Activity was 18.2%.
As for `CN1C(=O)[C@@H](O)[C@H](c2ccccc2)[C@@H]1[C@H](O)c1ccccc1`, the Activity is given as 17.3%.
As for `CN1C(=O)[C@@H](O)[C@@H](c2ccccc2)[C@@H]1[C@H](O)c1ccccc1`, the Activity is given as -15.4%.
The same measure, in the same setting: the same measure for `CN1C(=O)[C@@H](O)[C@H](c2ccccc2)[C@@H]1[C@@H](O)c1ccccc1`: 58.1%; for `CN1C(=O)[C@H](O)[C@@H](c2ccccc2)[C@@H]1[C@H](O)c1ccccc1`: -9.4%; for `CN1C(=O)[C@@H](O)[C@@H](c2ccccc2)[C@H]1[C@H](O)c1ccccc1`: 22.5%.
For `CN1C(=O)[C@H](O)[C@@H](c2ccccc2)[C@H]1[C@H](O)c1ccccc1` [(+)CLAUSENAMIDE], the Activity came out at 6.4%.
On to `CN1C(=O)[C@H](O)[C@@H](c2ccccc2)[C@@H]1[C@@H](O)c1ccccc1` [(+)NEOCLAUSENAMIDE], for which the Activity was -2.5%.

Another experiment can be described thus: Nootropic activity in hippocampus assessed as increase in amplitude of population spikes for > 40 mins by long-term potentiation enhancement assay relative to control. Format: functional.
On to `CN1C(=O)[C@H](O)[C@@H](c2ccccc2)[C@H]1[C@@H](O)c1ccccc1`, for which the Activity was above 30%.
`CN1C(=O)[C@H](O)[C@H](c2ccccc2)[C@@H]1[C@@H](O)c1ccccc1`: the Activity is reported as above 30%.
As for `CN1C(=O)[C@H](O)[C@H](c2ccccc2)[C@H]1[C@H](O)c1ccccc1`, the Activity is on record as above 30%.
